In general, pEC50 refers to the EC50 on a negative log10 scale, so that one unit is a factor of ten.

Structures are written as SMILES. pEC50: −log10 of the molar value. Bounds are passed on as bounds.

The first test has as its system Influenza type A (strain A/PR/8/34, ATCC VR-95). Briefly: Influenza antiviral assay: inhibition of virus-induced cytopathic effects (CPE) in MDCK cells, XTT dye reduction. The format is cell-based. As to conditions: Influenza A (H1N1), strain A/PR/8/34, MDCK cells, CPE inhibition at 4 days.
`CN1CN(C23c4ccccc4CC2Cc2c3ccc(F)c2Cl)n2ccc(=O)c(O)c2C1=O` (stereo not shown) [Compound A90] gave a pEC50 of 6.60 to 6.90.

Staying with this test, now noted: Influenza A virus, H1N1 / PR/8, MDCK, 96 h, strain A/PR/8/34, MDCK cells, CPE inhibition at 4 days.
On to `CCN1CN(C23c4ccccc4CC2Cc2cc(F)c(F)cc23)n2ccc(=O)c(O)c2C1=O` (stereo not shown) [Compound A10, 1-(2,3-Difluoro-9a,10-dihydro-9H-indeno[1,2-a]inden-4b-yl)-3-ethyl-5-hydroxy-2,3-dihydro-1H-pyrido[2,1-f][1,2,4]triazine-4,6-dione], for which the pEC50 was 6.43 to 6.60.
Turning to `CN1CN(C23c4ccccc4CC2Cc2c3ccc(Cl)c2Cl)n2ccc(=O)c(O)c2C1=O` (stereo not shown) [Compound A146], the negative logarithm of the EC50 (pEC50) is greater than 6.90.
For the compound `O=C1c2c(O)c(=O)ccn2N(C23c4ccccc4CC2Cc2cc(F)c(F)cc23)CN1CCc1ccc(F)cc1` (stereo not shown) [Compound A29, 1-(2,3-difluoro-9a,10-dihydroindeno[1,2-a]inden-4b(9H)-yl)-3-(4-fluorophenethyl)-5-hydroxy-2,3-dihydro-1H-pyrido[2,1-f][1,2,4]triazine-4,6-dione], the pEC50 was 6.60 to 6.90.
`CCN1CN(C23c4ccccc4CC2(CC)Cc2ccccc23)n2ccc(=O)c(O)c2C1=O` (stereo not shown) [Compound A157] showed a pEC50 of 6.60 to 6.90.
For the compound `CC1N(C)C(=O)c2c(O)c(=O)ccn2N1C12c3ccccc3CC1Cc1c2ccc(F)c1F` (stereo not shown) [Compound A64], the pEC50 is greater than 6.90.
In the case of `CN1CN(C23c4cc(F)c(F)cc4CC2Cc2cc(F)c(F)cc23)n2ccc(=O)c(O)c2C1=O` (stereo not shown) [Compound A8, 5-Hydroxy-3-methyl-1-(2,3,6,7-tetrafluoro-9a,10-dihydro-9H-indeno[1,2-a]inden-4b-yl)-2,3-dihydro-1H-pyrido[2,1-f][1,2,4]triazine-4,6-dione], the pEC50 was 6.30 to 6.43.
In the case of `CN1CN(C23c4cc(F)ccc4CC2Cc2c(Cl)cccc23)n2ccc(=O)c(O)c2C1=O` (stereo not shown) [Compound A96], the pEC50 was greater than 6.90.
The same measure, in the same setting: in the case of `O=C1c2c(O)c(=O)ccn2N(C23c4ccccc4CC2Cc2cc(F)c(F)cc23)CN1CC1CCOCC1` (stereo not shown) [Compound A16, 1-(2,3-Difluoro-9a,10-dihydro-9H-indeno[1,2-a]inden-4b-yl)-5-hydroxy-3-(tetrahydro-pyran-4-ylmethyl)-2,3-dihydro-1H-pyrido[2,1-f][1,2,4]triazine-4,6-dione] it was greater than 6.90.
Still for that read-out and setting: under `O=C1c2c(O)c(=O)ccn2N(C23c4ccccc4CC2Cc2ccccc23)CN1Cc1cccc(Cl)c1F` (stereo not shown) [Compound A31, 3-(3-chloro-2-fluorobenzyl)-1-(9a,10-dihydroindeno[1,2-a]inden-4b(9H)-yl)-5-hydroxy-2,3-dihydro-1H-pyrido[2,1-f][1,2,4]triazine-4,6-dione] stands less than 6.30; under `O=C1c2c(O)c(=O)ccn2N(C23c4ccccc4CC2Cc2c3ccc(F)c2F)CN1CCc1ccccc1` (stereo not shown) [Compound A25, 1-(1,2-difluoro-9a,10-dihydroindeno[1,2-a]inden-4b(9H)-yl)-5-hydroxy-3-phenethyl-2,3-dihydro-1H-pyrido[2,1-f][1,2,4]triazine-4,6-dione], greater than 6.90.
`O=C1c2c(O)c(=O)ccn2N(C23c4ccccc4CC2Cc2c3ccc(F)c2F)CN1CC1CCCC1` (stereo not shown) [Compound A100] had a pEC50 of less than 6.30.
Compound `O=C1c2c(O)c(=O)ccn2N(C23c4ccccc4CC2Cc2ccccc23)CN1Cc1ccccc1` (stereo not shown) [Compound A4, 3-Benzyl-1-(9a,10-dihydro-9H-indeno[1,2-a]inden-4b-yl)-5-hydroxy-2,3-dihydro-1H-pyrido[2,1-f][1,2,4]triazine-4,6-dione] gave a negative logarithm of the EC50 (pEC50) of less than 6.30.
The same measure, in the same setting: in the case of `O=C1c2c(O)c(=O)ccn2N(C23c4ccccc4CC2Cc2c(Cl)cccc23)CN1C1CCC1` (stereo not shown) [Compound A103] it was 6.43 to 6.60; in that of `O=C1c2c(O)c(=O)ccn2N(C23c4ccccc4CC2Cc2c3ccc(F)c2F)CN1CC1CC1` (stereo not shown) [Compound A9, 3-Cyclopropylmethyl-1-(1,2-difluoro-9a,10-dihydro-9H-indeno[1,2-a]inden-4b-yl)-5-hydroxy-2,3-dihydro-1H-pyrido[2,1-f][1,2,4]triazine-4,6-dione], less than 6.30; in that of `CCN1CN(C23c4cccc(C)c4CC2Cc2c(F)cccc23)n2ccc(=O)c(O)c2C1=O` (stereo not shown) [Compound A66], 6.60 to 6.90.

The values are drawn from patent publication US12037333B2, “Pyridopyrazine and pyridotriazine inhibitors of influenza virus replication” (priority 2018, dated 2024).
